Values of other authors as cited in EP0584511B1, “PROCESS FOR THE PREPARATION OF A COMPOSITE TEXTILE MATERIAL” (ALCANTARA S.p.A., priority 1992, dated 1994).

Settings: substituted aromatic amines proposed as replacement extenders; background statement
For Cc1cc(Cc2cc(C)c(N)c(C(C)C)c2)cc(C(C)C)c1N [4-4' methylene-bis-(2 isopropyl-6 methylaniline)], the “classification at Ames's test” value is listed as “non cancerogenic”. For CCc1cc(Cc2cc(CC)c(N)c(CC)c2Cl)c(Cl)c(CC)c1N [4-4' methylene-bis-(3-chloro-2,6-diethylaniline)], the “classification at Ames's test” value is given as “non cancerogenic”. For diethyltoluene diamine, the “classification at Ames's test” value is listed as “non cancerogenic”.
